Test results from patent publication US20250041377A1, “PHARMACEUTICAL USE” (ENLITISA (SHANGHAI) PHARMACEUTICAL CO., LTD., priority 2018, published 2025).
Counter-ions that a name gives are not always drawn.

Tests used:
[1] = system: bleomycin-induced pulmonary fibrosis; assay: Idiopathic pulmonary fibrosis (IPF) model; type: in vivo, Sprague Dawley rats; details: Day 29
Method: Experimental animals and grouping: 40 adult male Sprague Dawley rats, after 7 days of adaptive feeding, were divided into 4 groups: sham-operation group (Sham), IPF model group (no treatment; Model), test group (Compound B) and positive control group (Positive Control).
The test were administered Compound B, at a dose of 130 μg/rat, which was introduced by aerosolized inhalation. Oral administration of pirfenidone (Etuary®, Beijing Continent Pharmaceutical Co., Ltd., Beijing, China) as a 120 mg/kg single-bolus dose served as the positive control.
A pulmonary fibrosis model was established by intratracheal instillation of bleomycin. The rats were anaesthetised and placed on an operating table in the supine position, to expose the trachea. Bleomycin (5 mg/kg) saline solution was injected into the trachea through the gap between the tracheal cartilage rings. The sham-operation group were given an equal volume of normal saline. Shortly after administration, the rats were lifted vertically and were rotated, in order to evenly disperse the drug. Once the rats had recovered, after approximately 5 days, they were administrated the different drugs according to the plan for 28 days, consecutively.
The exhaust volume of the atomizing device was 0.15 mL per minute. The inhalation time for each rat was 1 minute.
At Day 29 following drug administration, rats were anesthetized by i.p. injection of chloral hydrate. After orbital blood collection, the rats were sacrificed. The thoracic cavity was quickly opened and the lung was collected for further analysis. The lung wet weight was measured, and the lung coefficient was calculated (lung wet weight/rat weight×1000). The tissue was stored in refrigerator at −80° C. for further use.
A piece of lung tissue was accurately weighed, and 9 times the weight of saline was added. Then, the tissue was homogenized and centrifuged for 10 minutes at 3000 rpm. The homogenate was used to detect the expression of the transformation growth factor (TGF-β1), tumor necrosis factor-α (TNF-α) and alpha-smooth muscle actin (α-SMA). Standard ELISA methods were used for the detection. The contents of malonaldehyde (MDA) and the activity of superoxide dismutase (SOD) in lung tissue were also detected.

[2] = system: ammonia induced cough; assay: Antitussive experiment, ammonia induced cough method; type: in vivo, ICR mice
Method: 36 ICR mice were randomly divided into 3 groups according to their body weight, labelled a CMC-Na (Negative) control group, a dextromethorphan hydrobromide (Positive) control group and a Compound B (B) group. Each group contained 12 mice, with 6 males and 6 females in each.
Compound B was administered via atomization inhalation using a YLS-8A Multifunctional cough and sputum inducing device (Jinan Yiyan Science and Technology Co., Ltd.) (0.15 ml/min) for 1 minute, once daily for 5 days. And the positive control drug was administered once daily by intragastric administration at 10 mg/kg for 5 days.
The mice were placed in an inverted beaker 1, 2, and 4 hours after the last drug administration. 1 mL of aqueous ammonia (25.0 to 28.0%) was placed on top of a boiling water bath and was evaporated into the beaker.
The time for mice to receive ammonia exposure was determined by a method characterized by analyzing data immediately after one test or a batch of tests. The results of the previous analysis determined how to conduct the next test or batch of tests.
The difference between the logarithmic value of two adjacent time periods was 0.1.
The number of coughs within 1 minute was detected using a stethoscope. If a mouse coughed three or more times over one minute, this was labelled as called ‘cough’, and less than three times in one minute was labelled ‘cough free’.
The EDT50 was defined as the ammonia stimulating time at which half mice developed a “cough”, calculated by the equation: […]
(c equals the sum of r and x, r is the number of animals in each stimulating time group, x is the logarithm of stimulation time and n was the number of animals in each group). lg is a base 10 logarithmic value.
In Table 15, R is the EDT50 in treatment group divided by the EDT50 in the Control group expressed as a percentage.

[3] = lung tissue homogenate, Compound B 130 μg/rat aerosolized inhalation, pirfenidone gavage, 28 days

Compound	TGF-β1 [1, 3] [ng/mg protein]	TNF-α [1, 3] [pg/mg protein]	α-SMA [1, 3] [pg/mg protein]	MDA ([1]; lung tissue) [U/mg protein]	SOD ([1]; lung tissue) [U/mg protein]	R ([2]; 1 hour after admin., EDT50 in treatment group divided by EDT50 in Control group) [%]	EDT50 ([2]; 1 hour after last administration, B 195 μg/mouse atomization inhalation, Positive 10 mg/kg intragastric, once daily 5 days) [s]	R ([2]; 2 hours after admin., EDT50 treatment/Control) [%]	EDT50 ([2]; 2 hours after last administration) [s]	R ([2]; 4 hours after admin., EDT50 treatment/Control) [%]	EDT50 ([2]; 4 hours after last administration) [s]
Cc1ccc(=O)n(-c2ccccc2)c1 [Positive Control, pirfenidone, reference compound]	0.41 ± 0.03	208.41 ± 17.73	10.98 ± 0.93	0.24 ± 0.05	48.59 ± 2.36						
COc1ccc2c(c1)[C@]13CCCC[C@@H]1[C@H](C2)N(C)CC3 [Positive, dextromethorphan hydrobromide, reference compound]						241.7	50.1	207.3	44.7	184.8	41.4
